Assay results taken from ChEMBL document CHEMBL1671626, “In vitro profiling of ceftaroline against a collection of recent bacterial clinical isolates from across the United States” (2008).
Converted amounts (≈) assume the structure as drawn.

How the values were obtained:
Type in all cases: functional
Staphylococcus aureus [1] = assay: Antibacterial activity against coagulase-negative and oxacillin-resistant Staphylococcus aureus assessed as susceptible isolates by CLSI M7-A7 broth microdilution method
Staphylococcus aureus [2] = assay: Antibacterial activity against coagulase-negative and oxacillin-susceptible Staphylococcus aureus by CLSI M7-A7 broth microdilution method
Streptococcus pneumoniae [3] = assay: Antibacterial activity against penicillin-resistant Streptococcus pneumoniae assessed as resistant isolates by CLSI M7-A7 broth microdilution method
Moraxella catarrhalis [4] = assay: Antibacterial activity against beta lactamase-positive Moraxella catarrhalis assessed as susceptible isolates by CLSI M7-A7 broth microdilution method
Streptococcus viridans [5] = assay: Antibacterial activity against penicillin-nonsusceptible Streptococcus viridans assessed as susceptible isolates by CLSI M7-A7 broth microdilution method
Staphylococcus aureus [6] = assay: Antibacterial activity against coagulase-negative and oxacillin-resistant Staphylococcus aureus by CLSI M7-A7 broth microdilution method
Staphylococcus aureus [7] = assay: Antibacterial activity against methicillin-susceptible Staphylococcus aureus assessed as resistant isolates by CLSI M7-A7 broth microdilution method
Staphylococcus aureus [8] = assay: Antibacterial activity against methicillin-resistant Staphylococcus aureus assessed as susceptible isolates by CLSI M7-A7 broth microdilution method
Streptococcus pyogenes [9] = assay: Antibacterial activity against erythromycin-susceptible Streptococcus pyogenes assessed as susceptible isolates by CLSI M7-A7 broth microdilution method
Streptococcus agalactiae [10] = assay: Antibacterial activity against erythromycin-nonsusceptible Streptococcus agalactiae assessed as susceptible isolates by CLSI M7-A7 broth microdilution method
Enterococcus faecalis [11] = assay: Antibacterial activity against vancomycin-resistant Enterococcus faecalis by CLSI M7-A7 broth microdilution method
Moraxella catarrhalis [12] = assay: Antibacterial activity against beta lactamase-positive Moraxella catarrhalis by CLSI M7-A7 broth microdilution method
Streptococcus pneumoniae [13] = assay: Antibacterial activity against penicillin-susceptible Streptococcus pneumoniae assessed as susceptible isolates by CLSI M7-A7 broth microdilution method
Streptococcus pyogenes [14] = assay: Antibacterial activity against erythromycin-nonsusceptible Streptococcus pyogenes by CLSI M7-A7 broth microdilution method
Streptococcus agalactiae [15] = assay: Antibacterial activity against erythromycin-nonsusceptible Streptococcus agalactiae by CLSI M7-A7 broth microdilution method
Streptococcus pneumoniae [16] = assay: Antibacterial activity against penicillin-resistant Streptococcus pneumoniae by CLSI M7-A7 broth microdilution method
Pasteurella multocida [17] = assay: Antibacterial activity against Pasteurella multocida by CLSI M7-A7 broth microdilution method
Enterococcus faecalis [18] = assay: Antibacterial activity against vancomycin-resistant Enterococcus faecalis assessed as susceptible isolates by CLSI M7-A7 broth microdilution method
Streptococcus pyogenes [19] = assay: Antibacterial activity against erythromycin-susceptible Streptococcus pyogenes by CLSI M7-A7 broth microdilution method
Streptococcus viridans [20] = assay: Antibacterial activity against penicillin-nonsusceptible Streptococcus viridans assessed as resistant isolates by CLSI M7-A7 broth microdilution method
Streptococcus viridans [21] = assay: Antibacterial activity against penicillin-susceptible Streptococcus viridans assessed as resistant isolates by CLSI M7-A7 broth microdilution method
Enterococcus faecium [22] = assay: Antibacterial activity against vancomycin-resistant Enterococcus faecium by CLSI M7-A7 broth microdilution method
Streptococcus pneumoniae [23] = assay: Antibacterial activity against penicillin-susceptible Streptococcus pneumoniae assessed as resistant isolates by CLSI M7-A7 broth microdilution method
Staphylococcus aureus [24] = assay: Antibacterial activity against coagulase-negative and oxacillin-susceptible Staphylococcus aureus assessed as susceptible isolates by CLSI M7-A7 broth microdilution method
Staphylococcus aureus [25] = assay: Antibacterial activity against coagulase-negative and oxacillin-susceptible Staphylococcus aureus assessed as resistant isolates by CLSI M7-A7 broth microdilution method
Streptococcus viridans [26] = assay: Antibacterial activity against penicillin-susceptible Streptococcus viridans by CLSI M7-A7 broth microdilution method
Enterococcus faecalis [27] = assay: Antibacterial activity against vancomycin-susceptible Enterococcus faecalis assessed as susceptible isolates by CLSI M7-A7 broth microdilution method
Enterococcus faecalis [28] = assay: Antibacterial activity against vancomycin-resistant Enterococcus faecalis assessed as resistant isolates by CLSI M7-A7 broth microdilution method
Streptococcus pyogenes [29] = assay: Antibacterial activity against erythromycin-nonsusceptible Streptococcus pyogenes assessed as resistant isolates by CLSI M7-A7 broth microdilution method
Enterococcus faecalis [30] = assay: Antibacterial activity against vancomycin-susceptible Enterococcus faecalis by CLSI M7-A7 broth microdilution method
Pasteurella multocida [31] = assay: Antibacterial activity against Pasteurella multocida assessed as resistant isolates by CLSI M7-A7 broth microdilution method
Streptococcus agalactiae [32] = assay: Antibacterial activity against erythromycin-susceptible Streptococcus agalactiae by CLSI M7-A7 broth microdilution method
Staphylococcus aureus [33] = assay: Antibacterial activity against methicillin-resistant Staphylococcus aureus by CLSI M7-A7 broth microdilution method
Streptococcus agalactiae [34] = assay: Antibacterial activity against erythromycin-nonsusceptible Streptococcus agalactiae assessed as resistant isolates by CLSI M7-A7 broth microdilution method
Streptococcus pyogenes [35] = assay: Antibacterial activity against erythromycin-nonsusceptible Streptococcus pyogenes assessed as susceptible isolates by CLSI M7-A7 broth microdilution method
Enterococcus faecalis [36] = assay: Antibacterial activity against vancomycin-susceptible Enterococcus faecalis assessed as resistant isolates by CLSI M7-A7 broth microdilution method
Moraxella catarrhalis [37] = assay: Antibacterial activity against beta lactamase-positive Moraxella catarrhalis assessed as resistant isolates by CLSI M7-A7 broth microdilution method
Enterococcus faecium [38] = assay: Antibacterial activity against vancomycin-resistant Enterococcus faecium assessed as susceptible isolates by CLSI M7-A7 broth microdilution method
Streptococcus agalactiae [39] = assay: Antibacterial activity against erythromycin-susceptible Streptococcus agalactiae assessed as susceptible isolates by CLSI M7-A7 broth microdilution method
Streptococcus pneumoniae [40] = assay: Antibacterial activity against penicillin-susceptible Streptococcus pneumoniae by CLSI M7-A7 broth microdilution method
Streptococcus viridans [41] = assay: Antibacterial activity against penicillin-susceptible Streptococcus viridans assessed as susceptible isolates by CLSI M7-A7 broth microdilution method
Enterococcus faecium [42] = assay: Antibacterial activity against vancomycin-resistant Enterococcus faecium assessed as resistant isolates by CLSI M7-A7 broth microdilution method
Staphylococcus aureus [43] = assay: Antibacterial activity against methicillin-susceptible Staphylococcus aureus assessed as susceptible isolates by CLSI M7-A7 broth microdilution method
Pasteurella multocida [44] = assay: Antibacterial activity against Pasteurella multocida assessed as susceptible isolates by CLSI M7-A7 broth microdilution method
Streptococcus pneumoniae [45] = assay: Antibacterial activity against penicillin-resistant Streptococcus pneumoniae assessed as susceptible isolates by CLSI M7-A7 broth microdilution method
Streptococcus viridans [46] = assay: Antibacterial activity against penicillin-nonsusceptible Streptococcus viridans by CLSI M7-A7 broth microdilution method
Staphylococcus aureus [47] = assay: Antibacterial activity against methicillin-resistant Staphylococcus aureus assessed as resistant isolates by CLSI M7-A7 broth microdilution method
Staphylococcus aureus [48] = assay: Antibacterial activity against methicillin-susceptible Staphylococcus aureus by CLSI M7-A7 broth microdilution method
Staphylococcus aureus [49] = assay: Antibacterial activity against coagulase-negative and oxacillin-resistant Staphylococcus aureus assessed as resistant isolates by CLSI M7-A7 broth microdilution method

`CC[C@H]1OC(=O)[C@H](C)[C@@H](O[C@H]2C[C@@](C)(OC)[C@@H](O)[C@H](C)O2)[C@H](C)[C@@H](O[C@@H]2O[C@H](C)C[C@H](N(C)C)[C@H]2O)[C@](C)(O)C[C@@H](C)C(=O)[C@H](C)[C@@H](O)[C@]1(C)O` [ERYTHROMYCIN] was tested, and the Activity (Staphylococcus aureus [1]) was 18.4%, the MIC50 (Staphylococcus aureus [2]) was 1 µg/mL (≈ 1.36 µM) and the MIC90 (Staphylococcus aureus [2]) was greater than 8 µg/mL. The Activity (Streptococcus pneumoniae [3]) was 71.6%, the Activity (Moraxella catarrhalis [4]) was 100% and the Activity (Streptococcus viridans [5]) was 21.4%. It also gave an MIC50 (Staphylococcus aureus [6]) greater than 8 µg/mL, an Activity (Staphylococcus aureus [7]) of 32.5% and an Activity (Staphylococcus aureus [8]) of 4.5%. It also gave an Activity (Streptococcus pyogenes [9]) of 100%, an Activity (Streptococcus agalactiae [10]) of 0% and an MIC (Enterococcus faecalis [11]) greater than 1 µg/mL. For the same molecule, the MIC (Moraxella catarrhalis [12]) was no more than 0.12 µg/mL, the MIC50 (Moraxella catarrhalis [12]) was no more than 0.12 µg/mL and the MIC90 (Moraxella catarrhalis [12]) was no more than 0.12 µg/mL. For the same molecule, the Activity (Streptococcus pneumoniae [13]) was 89.1%, the MIC50 (Streptococcus pyogenes [14]) was 8 µg/mL (≈ 10.9 µM) and the MIC90 (Streptococcus pyogenes [14]) was greater than 16 µg/mL. For the same molecule, the MIC50 (Streptococcus agalactiae [15]) was 16 µg/mL (≈ 21.8 µM), the MIC90 (Streptococcus agalactiae [15]) was greater than 16 µg/mL and the MIC50 (Streptococcus pneumoniae [16]) was 8 µg/mL (≈ 10.9 µM). It also gave an MIC90 (Streptococcus pneumoniae [16]) greater than 16 µg/mL, an MIC50 (Pasteurella multocida [17]) of 2 µg/mL (≈ 2.73 µM) and an MIC90 (Pasteurella multocida [17]) of 4 µg/mL (≈ 5.45 µM). It also gave an Activity (Enterococcus faecalis [18]) of 0%, an MIC50 (Streptococcus pyogenes [19]) of 0.03 µg/mL (≈ 0.0409 µM) and an MIC90 (Streptococcus pyogenes [19]) of 0.06 µg/mL (≈ 0.0818 µM). The Activity (Streptococcus viridans [20]) was 71.4%, the Activity (Streptococcus viridans [21]) was 40.2% and the MIC50 (Enterococcus faecium [22]) was greater than 8 µg/mL. For the same molecule, the MIC90 (Enterococcus faecium [22]) was greater than 8 µg/mL, the Activity (Streptococcus pneumoniae [23]) was 9.9% and the Activity (Staphylococcus aureus [24]) was 49.8%. For the same molecule, the Activity (Staphylococcus aureus [25]) was 49.3%, the MIC50 (Streptococcus viridans [26]) was 0.06 µg/mL (≈ 0.0818 µM) and the MIC90 (Streptococcus viridans [26]) was 4 µg/mL (≈ 5.45 µM). The Activity (Enterococcus faecalis [27]) was 10.2%, the Activity (Enterococcus faecalis [28]) was 96% and the Activity (Streptococcus pyogenes [29]) was 80%. The MIC50 (Enterococcus faecalis [30]) was greater than 8 µg/mL, the MIC90 (Enterococcus faecalis [30]) was greater than 8 µg/mL and the Activity (Pasteurella multocida [31]) was 77.3%. For the same molecule, the MIC50 (Streptococcus agalactiae [32]) was 0.03 µg/mL (≈ 0.0409 µM), the MIC90 (Streptococcus agalactiae [32]) was 0.06 µg/mL (≈ 0.0818 µM) and the MIC50 (Staphylococcus aureus [33]) was greater than 8 µg/mL. It also gave an Activity (Streptococcus agalactiae [34]) of 92.9%, an Activity (Streptococcus pyogenes [35]) of 0% and an Activity (Enterococcus faecalis [36]) of 59.9%. For the same molecule, the Activity (Moraxella catarrhalis [37]) was 0%, the Activity (Enterococcus faecium [38]) was 0% and the Activity (Streptococcus agalactiae [39]) was 100%. For the same molecule, the MIC50 (Streptococcus pneumoniae [40]) was 0.03 µg/mL (≈ 0.0409 µM), the MIC90 (Streptococcus pneumoniae [40]) was 0.5 µg/mL (≈ 0.681 µM) and the Activity (Streptococcus viridans [41]) was 58.6%. For the same molecule, the Activity (Enterococcus faecium [42]) was 92.3%, the Activity (Staphylococcus aureus [43]) was 65.2% and the Activity (Pasteurella multocida [44]) was 4.5%. The Activity (Streptococcus pneumoniae [45]) was 28.4%, the MIC50 (Streptococcus viridans [46]) was 2 µg/mL (≈ 2.73 µM) and the MIC90 (Streptococcus viridans [46]) was greater than 16 µg/mL. The Activity (Staphylococcus aureus [47]) was 94.4%, the MIC50 (Staphylococcus aureus [48]) was 0.5 µg/mL (≈ 0.681 µM) and the MIC90 (Staphylococcus aureus [48]) was greater than 8 µg/mL. The Activity (Staphylococcus aureus [49]) was 81.3%.
